Measurements as given in US20090137661A1, “PLANT DERIVED COMPOUNDS AND COMPOUND FORMULAE CONTAINING THE SAME FOR THE TREATMENT OF CERVICAL CANCER” (priority 2007, published 2009).
In brackets after ≈: the same amount, converted by molar mass. Read-outs that look alike come from different tables or passages of the source.

Legend:
HUVEC cells = test: Cytotoxicity assay (MTT assay) on HUVEC cells; assay type: cell-based, human; conditions: for IC50: Homo sapiens, HUVEC cells
Excerpt: Human umbilical vein endothelial cells (HUVEC) were purchased from Food Industry Research and Development Institute in Hsin-Chu City, Taiwan. HUVEC cells were propagated and maintained in Medium 199 supplemented with 10% FBS, Heparin, and […].
(§1) Cytotoxicity Assay (MTT Assay)

HeLa cells = test: Cytotoxicity assay (MTT assay) on HeLa cells; conditions: for IC50: Homo sapiens, HeLa; for cytotoxicity to HeLa cells compared with Doxorubicin HCl: under the corresponding conditions
Description: HeLa cell line was obtained from Dr. S. S. Shen (Biomedical Engineering Research Laboratories of Industrial Technology Research Institute of Taiwan). HeLa cells are adherent cells and were propagated and maintained in Dulbecco's modified Eagle's medium (DMEM) supplemented with 10% fetal bovine serum (FBS), […] sodium bicarbonate (NaHCO3), 1 mM sodium pyruvate, and 0.1 mM non-essential amino acid.
as §1
The cytotoxicity of the compounds set forth herein to HeLa cells and HUVEC cells were determined by the MTT assay. The HUVEC cells were used to understand the cytotoxicity of said compounds to normal human cells. Besides, doxorubicin HCl was used as a comparative example so as to investigate the efficacy of the compounds according to the embodiments of the present invention.
Briefly, the MTT assay comprises the following steps: • (A) Cells were seeded in 96-well plates 3 hours before treatment, wherein the density of HeLa cell is 1×10^4 cells per well and the density of HUVEC cell is 2×10^4 cells per well; • (B) Cells were then treated with various concentrations of tested samples and incubated for a predetermined period (24, 48, and 72 hours); • (C) After the predetermined periods expired, the tested samples were removed and 100 μl MTT reagent (1 mg/ml) was added to each well; • (D) The plates were incubated at 37° C. with 5% of CO2 for 5 hours; • (E) The MTT reagent was removed and 100 μl DMSO was added to each well; • (F) The optical density (O.D.) of each well was determined by ELISA reader at a wavelength of 560 nm.
Each experiment was repeated for 3 times and the result shown in the tables herein were the mean value of the 3 repetitions. The O.D. of the vehicle control and experimental groups were recorded. The cell survival rate of each sample was calculated as follows:
Cell survival rate(%)=O.D.control/O.D.experimental*100%
Then, the cell survival rate was plotted against the compound concentration and the IC50 value of each compound was calculated by the GraFit data analysis software (Erithacus Software Ltd.).

[1] = 24 hours, read-out: IC50 at 24 hours, HUVEC
[2] = 48 hours, read-out: IC50 at 48 hours, HUVEC
[3] = 72 hours, read-out: IC50 at 72 hours, HUVEC
[4] = 24 h, read-out: IC50 at 24 hours, HeLa
[5] = 48 h, read-out: IC50 at 48 hours, HeLa
[6] = 72 h, read-out: IC50 at 72 hours, HeLa

CC(C)[C@]12O[C@H]1[C@@H]1O[C@]13[C@]1(O[C@H]1C[C@H]1C4=C(CC[C@@]13C)C(=O)OC4)[C@@H]2O [Compound B, triptolide]
HUVEC Cell Survival Rate (HUVEC cells; 0.001 μg/ml, 24 hrs): 93%
HUVEC Cell Survival Rate (HUVEC cells; 0.001 μg/ml, 48 hrs): 102%
HUVEC Cell Survival Rate (HUVEC cells; 0.001 μg/ml, 72 hrs): 108%
HUVEC Cell Survival Rate (HUVEC cells; 0.01 μg/ml, 24 hrs): 94%
HUVEC Cell Survival Rate (HUVEC cells; 0.01 μg/ml, 48 hrs): 111%
HUVEC Cell Survival Rate (HUVEC cells; 0.01 μg/ml, 72 hrs): 114%
HUVEC Cell Survival Rate (HUVEC cells; 0.1 μg/ml, 24 hrs): 59%
HUVEC Cell Survival Rate (HUVEC cells; 0.1 μg/ml, 48 hrs): 36%
HUVEC Cell Survival Rate (HUVEC cells; 0.1 μg/ml, 72 hrs): 23%
HUVEC Cell Survival Rate (HUVEC cells; 1 μg/ml, 24 hrs): 71%
HUVEC Cell Survival Rate (HUVEC cells; 1 μg/ml, 48 hrs): 35%
HUVEC Cell Survival Rate (HUVEC cells; 1 μg/ml, 72 hrs): 23%
IC50 (HUVEC cells; [1]): > 1 µg/mL
IC50 (HUVEC cells; [2]): 0.151 µg/mL (≈ 0.419 µM)
IC50 (HUVEC cells; [3]): 0.084 µg/mL (≈ 0.233 µM)
HeLa Cell Survival Rate (HeLa cells; 0.001 μg/ml, 24 hrs): 98%
HeLa Cell Survival Rate (HeLa cells; 0.001 μg/ml, 48 hrs): 94%
HeLa Cell Survival Rate (HeLa cells; 0.001 μg/ml, 72 hrs): 81%
HeLa Cell Survival Rate (HeLa cells; 0.01 μg/ml, 24 hrs): 89%
HeLa Cell Survival Rate (HeLa cells; 0.01 μg/ml, 48 hrs): 37%
HeLa Cell Survival Rate (HeLa cells; 0.01 μg/ml, 72 hrs): 15%
HeLa Cell Survival Rate (HeLa cells; 0.1 μg/ml, 24 hrs): 33%
HeLa Cell Survival Rate (HeLa cells; 0.1 μg/ml, 48 hrs): 14%
HeLa Cell Survival Rate (HeLa cells; 0.1 μg/ml, 72 hrs): 9%
HeLa Cell Survival Rate (HeLa cells; 1 μg/ml, 24 hrs): 26%
HeLa Cell Survival Rate (HeLa cells; 1 μg/ml, 48 hrs): 12%
HeLa Cell Survival Rate (HeLa cells; 1 μg/ml, 72 hrs): 9%
HeLa Cell Survival Rate (HeLa cells; 100 μg/ml, 24 hrs): 20%
HeLa Cell Survival Rate (HeLa cells; 100 μg/ml, 48 hrs): 13%
HeLa Cell Survival Rate (HeLa cells; 100 μg/ml, 72 hrs): 9%
HUVEC/HeLa ratio of IC50 (HeLa cells; 24 hours): >13.9
HUVEC/HeLa ratio of IC50 (HeLa cells; 48 hours): 20.9
HUVEC/HeLa ratio of IC50 (HeLa cells; 72 hours): 29.3
IC50 (HeLa cells; [4]): 0.0721 µg/mL (≈ 0.2 µM)
IC50 (HeLa cells; [5]): 0.00724 µg/mL (≈ 0.0201 µM)
IC50 (HeLa cells; [6]): 0.00287 µg/mL (≈ 0.00796 µM)
cytotoxicity to HeLa cells compared with Doxorubicin HCl (HeLa cells): higher cytotoxicity

O=c1c(O)c(-c2ccc(O)c(O)c2)oc2cc(O)cc(O)c12 [Compound E, quercetin]
HUVEC Cell Survival Rate (HUVEC cells; 10 μg/ml, 48 hrs): 87%
HUVEC Cell Survival Rate (HUVEC cells; 10 μg/ml, 72 hrs): 80%
HUVEC Cell Survival Rate (HUVEC cells; 100 μg/ml, 24 hrs): 120%
HUVEC Cell Survival Rate (HUVEC cells; 100 μg/ml, 48 hrs): 51%
HUVEC Cell Survival Rate (HUVEC cells; 100 μg/ml, 72 hrs): 26%
IC50 (HUVEC cells; [1]): > 100 µg/mL
IC50 (HUVEC cells; [2]): 104 µg/mL (≈ 344 µM)
IC50 (HUVEC cells; [3]): 36 µg/mL (≈ 119 µM)
HeLa Cell Survival Rate (HeLa cells; 0.1 μg/ml, 24 hrs): 93%
HeLa Cell Survival Rate (HeLa cells; 1 μg/ml, 72 hrs): 91%
HeLa Cell Survival Rate (HeLa cells; 10 μg/ml, 24 hrs): 83%
HeLa Cell Survival Rate (HeLa cells; 10 μg/ml, 48 hrs): 51%
HeLa Cell Survival Rate (HeLa cells; 10 μg/ml, 72 hrs): 33%
HeLa Cell Survival Rate (HeLa cells; 100 μg/ml, 48 hrs): 32%
HeLa Cell Survival Rate (HeLa cells; 100 μg/ml, 72 hrs): 12%
IC50 (HeLa cells; [4]): > 100 µg/mL
IC50 (HeLa cells; [5]): 20 µg/mL (≈ 66.2 µM)
IC50 (HeLa cells; [6]): 6 µg/mL (≈ 19.9 µM)

Cc1cc2c(C(C)C)c(O)c(O)c(C=O)c2c(O)c1-c1c(C)cc2c(C(C)C)c(O)c(O)c(C=O)c2c1O [Compound F, gossypol-acetic acid]
HUVEC Cell Survival Rate (HUVEC cells; 0.1 μg/ml, 24 hrs): 93%
HUVEC Cell Survival Rate (HUVEC cells; 0.1 μg/ml, 48 hrs): 104%
HUVEC Cell Survival Rate (HUVEC cells; 0.1 μg/ml, 72 hrs): 103%
HUVEC Cell Survival Rate (HUVEC cells; 1 μg/ml, 24 hrs): 88%
HUVEC Cell Survival Rate (HUVEC cells; 1 μg/ml, 48 hrs): 104%
HUVEC Cell Survival Rate (HUVEC cells; 1 μg/ml, 72 hrs): 98%
HUVEC Cell Survival Rate (HUVEC cells; 10 μg/ml, 24 hrs): 80%
HUVEC Cell Survival Rate (HUVEC cells; 10 μg/ml, 48 hrs): 85%
HUVEC Cell Survival Rate (HUVEC cells; 10 μg/ml, 72 hrs): 71%
HUVEC Cell Survival Rate (HUVEC cells; 100 μg/ml, 24 hrs): 20%
HUVEC Cell Survival Rate (HUVEC cells; 100 μg/ml, 48 hrs): 17%
HUVEC Cell Survival Rate (HUVEC cells; 100 μg/ml, 72 hrs): 17%
IC50 (HUVEC cells; [1]): 30 µg/mL (≈ 57.9 µM)
IC50 (HUVEC cells; [2]): 33 µg/mL (≈ 63.6 µM)
IC50 (HUVEC cells; [3]): 23 µg/mL (≈ 44.4 µM)
HeLa Cell Survival Rate (HeLa cells; 0.1 μg/ml, 24 hrs): 101%
HeLa Cell Survival Rate (HeLa cells; 0.1 μg/ml, 48 hrs): 103%
HeLa Cell Survival Rate (HeLa cells; 0.1 μg/ml, 72 hrs): 98%
HeLa Cell Survival Rate (HeLa cells; 1 μg/ml, 24 hrs): 97%
HeLa Cell Survival Rate (HeLa cells; 1 μg/ml, 48 hrs): 105%
HeLa Cell Survival Rate (HeLa cells; 1 μg/ml, 72 hrs): 98%
HeLa Cell Survival Rate (HeLa cells; 10 μg/ml, 24 hrs): 80%
HeLa Cell Survival Rate (HeLa cells; 10 μg/ml, 48 hrs): 52%
HeLa Cell Survival Rate (HeLa cells; 10 μg/ml, 72 hrs): 40%
HeLa Cell Survival Rate (HeLa cells; 100 μg/ml, 24 hrs): 17%
HeLa Cell Survival Rate (HeLa cells; 100 μg/ml, 48 hrs): 13%
HeLa Cell Survival Rate (HeLa cells; 100 μg/ml, 72 hrs): 10%
HUVEC/HeLa ratio of IC50 (HeLa cells; 24 hours): 1.0
HUVEC/HeLa ratio of IC50 (HeLa cells; 48 hours): 2.8
HUVEC/HeLa ratio of IC50 (HeLa cells; 72 hours): 2.9
IC50 (HeLa cells; [4]): 29 µg/mL (≈ 55.9 µM)
IC50 (HeLa cells; [5]): 12 µg/mL (≈ 23.1 µM)
IC50 (HeLa cells; [6]): 8 µg/mL (≈ 15.4 µM)
cytotoxicity to HeLa cells compared with Doxorubicin HCl (HeLa cells): higher cytotoxicity
